From the supplement of paper PMC10307832

Key:
Experiment in all cases: relative viability (nuclei count vs DMSO), 5 days (fraction); higher = more cells survive
[1] = tested on: H3255
How it was run: (§1)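 Lung cancer cell lines, seeded in 1536-well plates, were treated the following day by pin tool with a single drug or with five library-drug doses (not always all listed) in √10 steps on top of a fixed anchor-drug dose. Cells were fixed and nuclei stained in one step after 5 days, and nuclei were counted. Relative viability is the nuclei count for treated wells divided by that for vehicle wells, reported as medians of duplicate plates.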

[2] = tested on: COR-L 105
How it was run: as §1

[3] = tested on: LOU-NH91
How it was run: as §1

[4] = tested on: NCI-H1944
How it was run: as §1

[5] = tested on: SK-MES-1
How it was run: as §1

[6] = tested on: NCI-H23
How it was run: as §1

[7] = tested on: NCI-H520
How it was run: as §1

[8] = tested on: ChaGo-K-1
How it was run: as §1

[9] = tested on: SW 900
How it was run: as §1

[10] = tested on: PC-3 [JPC-3]
How it was run: as §1

[11] = tested on: NCI-H1755
How it was run: as §1

[12] = tested on: A-427
How it was run: as §1

[13] = tested on: EKVX
How it was run: as §1

[14] = tested on: NCI-H2170
How it was run: as §1

[15] = tested on: NCI-H1792
How it was run: as §1

[16] = tested on: NCI-H1975
How it was run: as §1

[17] = tested on: EMC-BAC-2
How it was run: as §1

[18] = tested on: NCI-H596
How it was run: as §1

[19] = tested on: HCC-366
How it was run: as §1

[20] = tested on: NCI-H1666
How it was run: as §1

[21] = tested on: NCI-H1734
How it was run: as §1

[22] = tested on: NCI-H441
How it was run: as §1

[23] = tested on: LK-2
How it was run: as §1

SMILES: COc1cc(N2CCC(C(N)=O)CC2)ccc1Nc1nc(N)c(Cl)c(Nc2ccccc2S(=O)(=O)C(C)C)n1 [HG-5-88-01] + Nc1ncn([C@H]2C[C@H](O)[C@@H](CO)O2)c(=O)n1 [Decitabine] (partner 2 µM)
- relative viability ([1]; first compound 0.04 µM): 0.589
- relative viability ([1]; first compound 0.1265 µM): 0.629
- relative viability ([1]; first compound 0.4 µM): 0.568
- relative viability ([1]; first compound 4 µM): 0.574
- relative viability ([2]; first compound 0.04 µM): 0.569
- relative viability ([2]; first compound 0.1265 µM): 0.706
- relative viability ([2]; first compound 0.4 µM): 0.628
- relative viability ([2]; first compound 1.265 µM): 0.582
- relative viability ([2]; first compound 4 µM): 0.577
- relative viability ([3]; first compound 0.04 µM): 0.796
- relative viability ([3]; first compound 0.1265 µM): 0.844
- relative viability ([3]; first compound 0.4 µM): 0.725
- relative viability ([3]; first compound 1.265 µM): 0.587
- relative viability ([3]; first compound 4 µM): 0.6
- relative viability ([4]; first compound 0.04 µM): 0.398
- relative viability ([4]; first compound 0.1265 µM): 0.417
- relative viability ([4]; first compound 0.4 µM): 0.554
- relative viability ([4]; first compound 1.265 µM): 0.457
- relative viability ([4]; first compound 4 µM): 0.514
- relative viability ([5]; first compound 0.04 µM): 0.408
- relative viability ([5]; first compound 0.1265 µM): 0.368
- relative viability ([5]; first compound 0.4 µM): 0.407
- relative viability ([5]; first compound 1.265 µM): 0.459
- relative viability ([5]; first compound 4 µM): 0.34
- relative viability ([6]; first compound 0.04 µM): 0.365
- relative viability ([6]; first compound 0.1265 µM): 0.331
- relative viability ([6]; first compound 0.4 µM): 0.327
- relative viability ([6]; first compound 1.265 µM): 0.282
- relative viability ([6]; first compound 4 µM): 0.329
- relative viability ([7]; first compound 0.04 µM): 0.483
- relative viability ([7]; first compound 0.1265 µM): 0.478
- relative viability ([7]; first compound 0.4 µM): 0.584
- relative viability ([7]; first compound 1.265 µM): 0.516
- relative viability ([7]; first compound 4 µM): 0.538
- relative viability ([8]; first compound 0.04 µM): 0.524
- relative viability ([8]; first compound 0.1265 µM): 0.515
- relative viability ([8]; first compound 0.4 µM): 0.51
- relative viability ([8]; first compound 1.265 µM): 0.542
- relative viability ([8]; first compound 4 µM): 0.552
- relative viability ([9]; first compound 0.04 µM): 0.419
- relative viability ([9]; first compound 0.1265 µM): 0.441
- relative viability ([9]; first compound 0.4 µM): 0.528
- relative viability ([9]; first compound 1.265 µM): 0.492
- relative viability ([9]; first compound 4 µM): 0.436
- relative viability ([10]; first compound 0.04 µM): 0.762
- relative viability ([10]; first compound 0.1265 µM): 0.826
- relative viability ([10]; first compound 0.4 µM): 0.872
- relative viability ([10]; first compound 1.265 µM): 0.546
- relative viability ([10]; first compound 4 µM): 0.423
- relative viability ([11]; first compound 0.04 µM): 0.739
- relative viability ([11]; first compound 0.1265 µM): 0.732
- relative viability ([11]; first compound 0.4 µM): 0.829
- relative viability ([11]; first compound 1.265 µM): 0.688
- relative viability ([11]; first compound 4 µM): 0.836
- relative viability ([12]; first compound 0.04 µM): 0.549
- relative viability ([12]; first compound 0.1265 µM): 0.598
- relative viability ([12]; first compound 0.4 µM): 0.603
- relative viability ([12]; first compound 1.265 µM): 0.585
- relative viability ([12]; first compound 4 µM): 0.547
- relative viability ([13]; first compound 0.04 µM): 0.392
- relative viability ([13]; first compound 0.1265 µM): 0.332
- relative viability ([13]; first compound 0.4 µM): 0.389
- relative viability ([13]; first compound 4 µM): 0.345
- relative viability ([14]; first compound 0.04 µM): 0.461
- relative viability ([14]; first compound 0.1265 µM): 0.479
- relative viability ([14]; first compound 0.4 µM): 0.509
- relative viability ([14]; first compound 1.265 µM): 0.439
- relative viability ([14]; first compound 4 µM): 0.486
- relative viability ([15]; first compound 0.04 µM): 0.628
- relative viability ([15]; first compound 0.1265 µM): 0.452
- relative viability ([15]; first compound 0.4 µM): 0.579
- relative viability ([15]; first compound 1.265 µM): 0.564
- relative viability ([15]; first compound 4 µM): 0.545
- relative viability ([16]; first compound 0.04 µM): 0.409
- relative viability ([16]; first compound 0.1265 µM): 0.474
- relative viability ([16]; first compound 0.4 µM): 0.382
- relative viability ([16]; first compound 1.265 µM): 0.403
- relative viability ([16]; first compound 4 µM): 0.273
- relative viability ([17]; first compound 0.04 µM): 1
- relative viability ([17]; first compound 0.1265 µM): 1.07
- relative viability ([17]; first compound 0.4 µM): 0.965
- relative viability ([17]; first compound 1.265 µM): 0.874
- relative viability ([17]; first compound 4 µM): 0.802
- relative viability ([18]; first compound 0.04 µM): 1.02
- relative viability ([18]; first compound 0.1265 µM): 0.973
- relative viability ([18]; first compound 0.4 µM): 1.04
- relative viability ([18]; first compound 1.265 µM): 0.981
- relative viability ([18]; first compound 4 µM): 0.974
- relative viability ([19]; first compound 0.04 µM): 0.367
- relative viability ([19]; first compound 0.1265 µM): 0.357
- relative viability ([19]; first compound 0.4 µM): 0.436
- relative viability ([19]; first compound 1.265 µM): 0.338
- relative viability ([19]; first compound 4 µM): 0.343
- relative viability ([20]; first compound 0.04 µM): 0.66
- relative viability ([20]; first compound 0.1265 µM): 0.743
- relative viability ([20]; first compound 0.4 µM): 0.779
- relative viability ([20]; first compound 1.265 µM): 0.622
- relative viability ([20]; first compound 4 µM): 0.566
- relative viability ([21]; first compound 0.04 µM): 0.526
- relative viability ([21]; first compound 0.1265 µM): 0.564
- relative viability ([21]; first compound 0.4 µM): 0.511
- relative viability ([21]; first compound 1.265 µM): 0.462
- relative viability ([21]; first compound 4 µM): 0.532
- relative viability ([22]; first compound 0.04 µM): 0.235
- relative viability ([22]; first compound 0.1265 µM): 0.28
- relative viability ([22]; first compound 0.4 µM): 0.272
- relative viability ([22]; first compound 1.265 µM): 0.231
- relative viability ([22]; first compound 4 µM): 0.271
- relative viability ([23]; first compound 0.04 µM): 0.254
- relative viability ([23]; first compound 0.1265 µM): 0.327
- relative viability ([23]; first compound 0.4 µM): 0.386
- relative viability ([23]; first compound 4 µM): 0.236
